Assay results from patent US9034336B2, “Immunomodulators and immunomodulator conjugates” (Regents of the University of Minnesota, priority 2011, dated 2015).

Experiments:
human TLR7 = biological target: T1, human TLR7 (Homo sapiens, UniProt Q9NYK1); assay: TLR7/8-NF-κB reporter assay (HEK-TLR7, SEAP); type: cell-based; details: HEK-TLR7 cells, 24 hrs; for EC50: read-out: EC50 of TLR7 (mean ± SD)
T1 construct: host or cells: HEK (HEK293) cells with NF-kB-responsive SEAP reporter
T1 sequence (Q9NYK1 27-1049): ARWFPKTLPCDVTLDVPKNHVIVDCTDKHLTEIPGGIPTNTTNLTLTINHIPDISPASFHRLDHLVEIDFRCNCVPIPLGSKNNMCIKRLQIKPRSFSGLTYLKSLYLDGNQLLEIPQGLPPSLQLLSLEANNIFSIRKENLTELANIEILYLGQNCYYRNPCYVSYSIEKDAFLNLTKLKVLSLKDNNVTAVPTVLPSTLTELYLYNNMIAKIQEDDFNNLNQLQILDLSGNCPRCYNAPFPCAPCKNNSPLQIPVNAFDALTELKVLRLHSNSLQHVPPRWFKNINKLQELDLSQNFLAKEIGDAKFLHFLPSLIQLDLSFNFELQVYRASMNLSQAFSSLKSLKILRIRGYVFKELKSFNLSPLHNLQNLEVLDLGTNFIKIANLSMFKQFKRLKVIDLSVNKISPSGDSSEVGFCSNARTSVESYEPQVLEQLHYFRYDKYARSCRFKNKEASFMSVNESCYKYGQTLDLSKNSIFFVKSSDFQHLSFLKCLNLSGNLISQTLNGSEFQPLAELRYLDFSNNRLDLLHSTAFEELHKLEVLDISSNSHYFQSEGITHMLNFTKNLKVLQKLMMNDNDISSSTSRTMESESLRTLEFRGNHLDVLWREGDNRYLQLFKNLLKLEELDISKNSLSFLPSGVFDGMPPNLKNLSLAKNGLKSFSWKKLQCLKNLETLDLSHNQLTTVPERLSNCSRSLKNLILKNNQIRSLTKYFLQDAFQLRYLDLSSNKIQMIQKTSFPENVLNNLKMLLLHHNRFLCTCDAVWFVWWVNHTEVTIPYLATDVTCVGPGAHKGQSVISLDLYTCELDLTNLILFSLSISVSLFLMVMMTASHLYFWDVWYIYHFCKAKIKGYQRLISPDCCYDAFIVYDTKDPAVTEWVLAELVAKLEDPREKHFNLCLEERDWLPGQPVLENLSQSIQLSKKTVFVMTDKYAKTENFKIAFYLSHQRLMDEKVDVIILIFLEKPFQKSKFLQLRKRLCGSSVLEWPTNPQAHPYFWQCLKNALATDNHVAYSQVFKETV
Experimental: (§1) Human embryonic kidney (HEK) cells that were stably transfected with human TLR7 or TLR8 and an NF-κB—responsive secreted embryonic alkaline phosphatase (SEAP) gene (HEK-TLR7/8) were purchased from InvivoGen (San Diego, Calif.). The procedure used to measure TLR7 or TLR8 agonist activity was conducted as described by Hood et al. (Hood J. D, et al., Human Vaccines, 2010, 6, 4, 322-335). Briefly, HEK-TLR7/8 cells were stimulated with 3.3 or 30 μM of compound in a 96-well plate in DMEM containing 10% FBS and 0.01% Normocin (InvivoGen) for 24 hrs. Twenty microliters of the supernatant from each well was incubated with Quanti-blue substrate solution (InvivoGen) at 37° C. for 1 hour and absorbance was read at 650 nm using a Synergy plate reader (Biotek, Winooski, Vt.).

human TLR8 = biological target: T2, human TLR8 (Homo sapiens, UniProt Q9NR97); assay: TLR7/8-NF-κB reporter assay (HEK-TLR8, SEAP); type: cell-based; details: HEK-TLR8 cells, 24 hrs, read-out: EC50 of TLR8 (mean ± SD)
T2 construct: host or cells: HEK (HEK293) cells with NF-kB-responsive SEAP reporter
T2 sequence (Q9NR97 27-1041): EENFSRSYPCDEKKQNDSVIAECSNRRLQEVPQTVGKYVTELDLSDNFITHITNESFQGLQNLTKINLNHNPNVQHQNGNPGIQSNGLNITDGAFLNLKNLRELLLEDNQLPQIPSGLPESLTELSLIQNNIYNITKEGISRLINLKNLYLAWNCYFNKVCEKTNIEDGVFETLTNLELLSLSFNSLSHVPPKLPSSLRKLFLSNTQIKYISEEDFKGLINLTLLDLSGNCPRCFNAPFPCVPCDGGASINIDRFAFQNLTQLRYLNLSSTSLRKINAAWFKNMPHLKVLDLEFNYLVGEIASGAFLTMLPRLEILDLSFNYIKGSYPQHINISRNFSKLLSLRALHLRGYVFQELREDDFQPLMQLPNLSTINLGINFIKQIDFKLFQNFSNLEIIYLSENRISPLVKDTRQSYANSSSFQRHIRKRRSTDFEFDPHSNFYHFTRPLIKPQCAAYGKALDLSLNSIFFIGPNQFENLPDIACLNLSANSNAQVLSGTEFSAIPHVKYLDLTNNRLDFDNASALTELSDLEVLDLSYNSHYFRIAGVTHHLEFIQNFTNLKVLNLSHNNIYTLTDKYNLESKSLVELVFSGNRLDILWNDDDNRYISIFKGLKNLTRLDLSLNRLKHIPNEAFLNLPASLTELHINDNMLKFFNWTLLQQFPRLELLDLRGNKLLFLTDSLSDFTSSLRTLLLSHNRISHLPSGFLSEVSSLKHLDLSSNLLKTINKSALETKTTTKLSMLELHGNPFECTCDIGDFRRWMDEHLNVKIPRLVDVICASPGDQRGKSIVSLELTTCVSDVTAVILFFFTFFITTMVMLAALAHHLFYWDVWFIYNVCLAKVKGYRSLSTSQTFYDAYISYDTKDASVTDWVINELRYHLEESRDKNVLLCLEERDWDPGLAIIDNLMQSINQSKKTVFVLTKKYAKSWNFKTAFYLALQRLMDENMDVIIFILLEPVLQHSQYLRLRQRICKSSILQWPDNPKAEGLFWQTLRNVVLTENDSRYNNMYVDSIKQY
Experimental: as §1

Structure (SMILES) | EC50 (human TLR7) [µM] | EC50 (human TLR8) [µM] | EC50 of TLR7 (mean ± SD) (human TLR7)
COC(=O)c1ccc2c(c1)nc(N)c1nc(C)n(CC(C)(C)O)c12 [Compound 516, 4-amino-1-(2-hydroxy-2-methylpropyl)-7-methoxycarbonyl-2-methyl-1H-imidazo[4,5-c]quinoline] | 49.2 ± 17.3 |  | 
CCCCc1nc2c(N)nc3cc(C(=O)OC)ccc3c2n1CCOCc1ccccc1 [Compound 520, 4-Amino-1-(2-(benzyloxy)ethyl)-2-butyl-7-methoxycarbonyl 1H-imidazo[4,5-c]quinoline] | 2.42 ± 0.19 | 31 ± 10.6 | 
CCOC(=O)c1ccc2c(c1)nc(N)c1ncn(CC(C)C)c12 [Compound 511, 4-Amino-7-ethoxycarbonyl-1-(2-methylpropyl)-1H-imidazo[4,5-c]quinoline] | 7.92 ± 1.49 |  | 
CCCCc1nc2c(N)nc3cc(C(=O)OC)ccc3c2n1CCOC [Compound 521, 4-Amino-2-butyl-1-(2-methoxyethyl)-7-methoxycarbonyl-1H-imidazo[4,5-c]quinolone] | 5.67 ± 0.81 |  | 
CCc1nc2c(N)nc3cc(C(=O)OC)ccc3c2n1CC(C)(C)O [Compound 517, 4-amino-2-ethyl-1-(2-hydroxy-2-methylpropyl)-7-methoxycarbonyl-1H-imidazo[4,5-c]quinoline] | 29.1 ± 4.33 |  | 
CCCCc1nc2c(N)nc3cc(C(=O)OCC)ccc3c2n1CC(C)(C)O [Compound 525, 4-Amino-2-butyl-1-(2-hydroxyl-2-methylprop-yl)-7-ethoxycarbonyl-1H-imidazo[4,5-c]quinoline] | 2.21 ± 0.44 | 19.9 ± 1.04 | 
COC(=O)c1ccc2c(c1)nc(N)c1ncn(CC(C)(C)O)c12 [Compound 421, 4-amino-1-(2-hydroxy-2-methylpropyl)-7-methoxycarbonyl-1H-imidazo[4,5-c]quinoline] |  |  | NO EC50
CCCc1nc2c(N)nc3cc(C(=O)OC)ccc3c2n1CC(C)(C)O [Compound 518, 4-amino-1-(2-hydroxy-2-methylpropyl)-7-methoxycarbonyl-2-propyl-1H-imidazo[4,5-c]quinoline] | 23.8 ± 4.34 |  | 
COC(=O)c1ccc2nc(N)c3ncn(CC(C)C)c3c2c1 [Compound 504, 4-amino-1-isobutyl-8-methoxycarbonyl-1H-imidazo[4,5-c]quinoline] | 21.2 ± 5.22 | 21.2 ± 19.9 | 
COC(=O)c1ccc2c(c1)nc(N)c1ncn(Cc3ccccc3)c12 [Compound 422, 4-amino-1-benzyl--7-methoxycarbonyl-1H-imidazo[4,5-c]quinoline] |  |  | NO EC50
CCCCc1nc2c(N)nc3cc(C(=O)OC(C)C)ccc3c2n1CC(C)(C)O [Compound 526] | 3.94 ± 0.25 | 17.2 ± 5.33 | 

Second part, the compound after the results:

EC50 (human TLR7) [µM] | EC50 (human TLR8) [µM] | EC50 of TLR7 (mean ± SD) (human TLR7) | Structure (SMILES)
20.2 ± 4.11 | 31.7 ± 1.54 |  | COCCc1nc2c(N)nc3cc(C(=O)OC)ccc3c2n1CC(C)O (centres unmarked) [Compound 536, 4-Amino-1-(2-hydroxypropyl)-2-(2-methoxyethyl)-7-carboxylate-1H-imidazo[4,5-c]quinoline]
2.6 ± 0.18 | 7.15 ± 0.29 |  | CCCCCc1nc2c(N)nc3cc(C(=O)OC)ccc3c2n1CC(C)(C)O [Compound 527, 4-Amino-1-(2-hydroxyl-2-methylpropyl)-7-methoxy carbonyl-2-pentyl-1H-imidazo[4,5-c]quinoline]
5.23 ± 0.16 | 4.73 ± 0.55 |  | CCCCc1nc2c(N)nc3cc(C(=O)OCC)ccc3c2n1CC(C)O (centres unmarked) [Compound 531, 4-Amino-2-butyl-1-(2-hydroxypropyl)-7-ethoxycarbonyl-1H-imidazo[4,5-c]quinoline]
22.9 ± 5.28 | 4.41 ± 0.49 |  | CCCCc1nc2c(N)nc3cc(C(=O)OC)ccc3c2n1CCO [Compound 529, 4-Amino-2-butyl-1-(2-hydroxyethyl)-7-methoxycarbonyl-1H-imidazo[4,5-c]quinoline]
2.5 ± 0.15 | 5.82 ± 0.2 |  | CCCCc1nc2c(N)nc3cc(C(=O)OC(C)C)ccc3c2n1CC(C)O (centres unmarked) [Compound 530, 4-Amino-2-butyl-1-(2-hydroxypropyl)-7-isopropoxycarbonyl-1H-imidazo[4,5-c]quinoline]
4.79 ± 0.46 |  |  | COC(=O)c1ccc2c(c1)nc(N)c1nc(Cc3ccccc3)n(CC(C)(C)O)c12 [Compound 535, 4-Amino-2-benzyl-1-(2-hydroxyl-2-methylprop-yl)-7-methoxycarbonyl-1H-imidazo[4,5-c]quinoline]
